Assay results as given in patent publication US20240116999A1, “CONFORMATIONALLY CONSTRAINED GLUCAGON ANALOGUES AND THEIR USE IN GLUCAGON-SINGLE CHAIN INSULIN FUSION PROTEINS” (THE TRUSTEES OF INDIANA UNIVERSITY, priority 2021, published 2024).
Bridge positions count the residues as written; N and C are the ends. Square brackets hold non-standard residues; d marks the D form. Ends that are not written are not given here. Peptide text beside a SMILES is read from it. Orn = NCCC[C@H](N)C(=O)O

Columns and labels:
[1] = Thioflavin T (ThT) fibrillation assay; assay type: physicochemical; details: for formation of amyloid-like fibrils: FIG. 15, month-long assay, 100 μM, pH 7.4, 37° C.; for fibril formation: FIG. 5, relative to native glucagon
Description: Fibrillation Assays. We employed an automated plate-based fluorescent device to monitor the time course of peptide fibrillation using a Thioflavin T (ThT) assay. This assay is based on the THT fluorescence emission at 480 nm upon binding to mature fibrils when excited at 440 nm. The assay was performed by preparing stock solutions of the fusion protein and the individual peptides in either NaCl 0.9% (pH 2.5) or PBS (pH 7.4). Our experience has identified 100-μM final concentration as optimal fibrillation conditions for glucagon analogues. Stock solutions were diluted with NaCl 0.9% or 1X PBS buffer, pH adjusted (with 1N HCl or 1N NaOH) mixed with Thioflavin-T (THT) at a final concentration of 16 μM, centrifuged, and 250 μl of the sample were placed on a 96-well plate with 4-10 technical replicates. Measurements were done every 15 minutes and the sample agitated at 1096 cpm at 37° C. on a Synergy H1 microplate reader (BioTek, Winooski, VT). The lag time, defined as the time-point at which fibrillation starts its exponential phase, was considered as the point at which fluorescence was 3 times the background signal.

glucagon receptor = glucagon receptor (Homo sapiens, UniProt P47871); assay: Cell-based cyclic AMP (cAMP) activity assay; details: for EC50: FIG. 8B, HEK-293 cells overexpressing glucagon receptor, read-out: EC50 (cAMP production)
Description: Cell-based Activity Assays. We generated a cAMP assay on HepG2 cells transiently transfected with the glucagon receptor (GCGR). The GCGR gene with C-terminal Flag tag was synthesized and ligated to a pcDNA 3.1 vector by Genscript. A plate of HepG2 cells was grown to 70% confluence and then transfected with 15 μg plasmid. […] Then, cAMP was measured following the instructions of the LANCETM Ultra cAMP Kit (PerkingElmer) using 3 technical replicates per point. This is a TR-FRET assay based on the competition between a europium-labeled cAMP and sample cAMP for binding to cAMP-specific labeled antibodies. In the LANCE cAMP assay, a higher sample cAMP (higher glucagon activity) translates to lower signal.

normal rats [2] = assay: In vivo glucagon activity assay in normal rats; set-up: species or system rat; details: for in vivo glucagon activity (rise in blood glucose): subcutaneous injection
Description: Glucagon Activity Assays. […] Glucagon or analogues were prepared (150 μg/ml in sterile 50 mM Tris-HCl buffer (pH 8.0)) and administered by subcutaneous injections (40.1 nmol/kg (˜50 ug/333 g rat)) in an injection volume of 200 μl/333 g rat. Rats were grouped according to their 2nd measured starting blood-glucose concentrations to ensure similar starting values at time=0. For in vivo dose-response studies a series of doses (40.1, 8.0, 1.6, 0.32, 0.064, and 0.013 nmol/kg) was tested in groups of 4-5 rats at each dose. Diluent volume was 200 μl/333 g rat. Experiments were repeated at least twice, and the results were averaged. The rise in blood glucose values were corrected by any changes observed in diluent-injected rats.

normal rats [3] = assay: Stability assay: samples incubated at 37° C., then activity tested; assay type: in vivo, rat; details: FIG. 11; 150 μg/ml in 50 mM Tris buffer pH 8.0, 37° C., mild agitation and rotation; tested t=0, day 3, day 7
Description: Glucagon Activity Assays. The glycemic activities of glucagon analogues were tested (Ismail-Beigi ,Case Western Reserve University) in normal male rats (250-350 g) that were fasted for 4 h before the injection and not fed during the course of the experiment (4-5 rats per dose of glucagon in parallel). Glucagon or analogues were prepared (150 μg/ml in sterile 50 mM Tris-HCl buffer (pH 8.0)) and administered by subcutaneous injections (40.1 nmol/kg (˜50 ug/333 g rat)) in an injection volume of 200 μl/333 g rat. Rats were grouped according to their 2nd measured starting blood-glucose concentrations to ensure similar starting values at time=0. For in vivo dose-response studies a series of doses (40.1, 8.0, 1.6, 0.32, 0.064, and 0.013 nmol/kg) was tested in groups of 4-5 rats at each dose. Diluent volume was 200 μl/333 g rat. Experiments were repeated at least twice, and the results were averaged. The rise in blood glucose values were corrected by any changes observed in diluent-injected rats.
To test for stability of glucagon and its analogues, samples (150 μg/ml in 50 mM Tris-HCl buffer (pH 8.0)) were incubated at 37° C. with mild agitation and rotation. Samples were tested as described above after varying periods of incubation.

STZ (diabetic) rats = assay: In vivo assay in STZ (diabetic) rats, subcutaneous injection; set-up: species or system rat
Description: FIG. 17 presents an in vivo assay done in STZ rats.
FIG. 18 presents another in vivo assay done in STZ rats. The four fusion proteins used in FIG. 17 were subcutaneously injected at doses of 23.8 nmol/kg per rat. […] In this study both fusion proteins carrying an active SCI analogue had similar activities.

[4] = pH 2.5, 37° C., constant agitation

glucagon receptor, sequence (P47871 26-477, species assumed): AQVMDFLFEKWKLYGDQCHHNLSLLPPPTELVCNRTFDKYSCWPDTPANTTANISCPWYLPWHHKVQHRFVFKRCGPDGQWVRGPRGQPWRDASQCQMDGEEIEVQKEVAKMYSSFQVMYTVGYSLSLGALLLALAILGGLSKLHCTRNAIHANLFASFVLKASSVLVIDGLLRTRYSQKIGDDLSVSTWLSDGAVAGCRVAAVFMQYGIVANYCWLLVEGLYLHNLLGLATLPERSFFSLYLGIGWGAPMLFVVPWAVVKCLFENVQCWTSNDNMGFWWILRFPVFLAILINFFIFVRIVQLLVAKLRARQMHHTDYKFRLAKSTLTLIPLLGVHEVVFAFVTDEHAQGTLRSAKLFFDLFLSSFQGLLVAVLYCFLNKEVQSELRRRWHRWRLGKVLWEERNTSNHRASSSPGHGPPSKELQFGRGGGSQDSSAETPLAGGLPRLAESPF

Compound: CSCC[C@H](NC(=O)[C@H](CC(C)C)NC(=O)[C@H](Cc1c[nH]c2ccccc12)NC(=O)[C@H](CCC(N)=O)NC(=O)[C@@H](NC(=O)[C@H](Cc1ccccc1)NC(=O)[C@H](CC(=O)O)NC(=O)[C@H](CCC(N)=O)NC(=O)[C@H](C)NC(=O)[C@H](CCCN)NC(=O)[C@@H]1CCC(=O)NCCCC[C@H](NC(=O)[C@H](CCCN)NC(=O)[C@H](CO)NC(=O)[C@H](Cc2ccc(O)cc2)NC(=O)[C@H](CC(=O)O)NC(=O)[C@H](CO)NC(=O)[C@@H](NC(=O)[C@H](Cc2ccccc2)NC(=O)[C@@H](NC(=O)CNC(=O)[C@H](CCC(N)=O)NC(=O)[C@H](CO)NC(=O)[C@@H](N)Cc2c[nH]cn2)[C@@H](C)O)[C@@H](C)O)C(=O)N[C@@H](CC(C)C)C(=O)N[C@@H](CC(=O)O)C(=O)N[C@@H](CO)C(=O)N1)C(C)C)C(=O)N[C@@H](CC(N)=O)C(=O)N[C@H](C(=O)N[C@@H](CCC(=O)O)C(=O)N[C@@H](CCC(=O)O)C(=O)N[C@@H](CCCCN)C(=O)O)[C@@H](C)O [SEQ ID NO: 23, HSQGTFTSDYSOKLDSEOAQDFVQWLMNTEEK] (H-HSQGTFTSDYS[Orn]KLDSE[Orn]AQDFVQWLMNTEEK-OH; lactam 13-17; N-terminus and C-terminus assumed)
- time without fibril formation ([1]; FIG. 7, phosphate-buffered saline pH 7.4, 100 μM, 37° C., constant agitation): > 11 days
- formation of amyloid-like fibrils [1]: did not form amyloid-like fibrils within the duration of the experiment
- EC50 (glucagon receptor): 126 nM
- rise in blood glucose levels (normal rats [2]; FIG. 12, 8 nmol/kg rat dose): minor raise
- rise in blood glucose levels, dose-response (normal rats [2]; FIG. 12, doses 0.32, 1.6, 8 and 40 nmol/kg rat): only at the maximum dose
- in vivo glucagon activity (rise in blood glucose) (normal rats [2]; FIGS. 9, 10, 13): maximal activity
- in vivo glucagon activity (rise in blood glucose) (normal rats [2]; FIGS. 9, 10, 13, listed as [Lys13, Glu17]-glucagon-EEK lactam): active
- biological activity after incubation (stability) (normal rats [3]): maintained full biological activity

Compound: CC(C)C[C@H](NC(=O)[C@H](Cc1c[nH]c2ccccc12)NC(=O)[C@H](CCCCN)NC(=O)[C@@H](NC(=O)[C@H](Cc1ccccc1)NC(=O)[C@H](CCC(=O)O)NC(=O)[C@H](CCC(=O)O)NC(=O)[C@H](C)NC(=O)[C@H](CCCNC(=N)N)NC(=O)[C@H](C)NC(=O)C(C)(C)NC(=O)[C@H](CC(=O)O)NC(=O)[C@H](CC(C)C)NC(=O)[C@H](Cc1ccc(O)cc1)NC(=O)[C@H](CCCCN)NC(=O)[C@H](CO)NC(=O)[C@H](Cc1ccc(O)cc1)NC(=O)[C@H](CC(=O)O)NC(=O)[C@H](CO)NC(=O)[C@@H](NC(=O)[C@H](Cc1ccccc1)NC(=O)[C@@H](NC(=O)CNC(=O)[C@H](CCC(N)=O)NC(=O)[C@H](CO)NC(=O)[C@@H](N)Cc1c[nH]cn1)[C@@H](C)O)[C@@H](C)O)C(C)C)C(=O)N[C@@H](CCC(=O)O)C(=O)N[C@@H](CO)C(=O)N[C@H](C(=O)O)[C@@H](C)O [dasiglucagon, reference compound]
- biological activity after incubation (stability) (normal rats [3]): maintained full biological activity

Compound: human insulin [reference compound]
- formation of amyloid-like fibrils [1]: formed amyloid-like fibrils

Compound: HSQGTFTSDYSOKLDSEOAQDFVQWLMNTEEK (HSQGTFTSDYS[Orn]KLDSE[Orn]AQDFVQWLMNTEEK; lactam 13-17) [[Lys13, Glu17]-glucagon-EEK linear, includes the [Lys13-Glu17] substitutions but not the side-chain lactam bond]
- potency (cAMP assay) (glucagon receptor; FIG. 8, relative to the lactam analogue): markedly diminished potency
- in vivo glucagon activity (rise in blood glucose) (normal rats [2]; FIGS. 9, 10, 13): inactive

Compound: HSQGTFTSDYSKYLDSRRAQDFVQWLMNTK [SEQ ID NO: 3]
- fibril formation [1, 4]: delay fibril formation

Compound: CSCC[C@H](NC(=O)[C@H](CC(C)C)NC(=O)[C@H](Cc1c[nH]c2ccccc12)NC(=O)[C@H](CCC(N)=O)NC(=O)[C@@H](NC(=O)[C@H](Cc1ccccc1)NC(=O)[C@H](CC(=O)O)NC(=O)[C@H](CCC(N)=O)NC(=O)[C@H](C)NC(=O)[C@H](CCCN)NC(=O)[C@H](CCCN)NC(=O)[C@H](CO)NC(=O)[C@H](CC(=O)O)NC(=O)[C@H](CC(C)C)NC(=O)[C@H](Cc1ccc(O)cc1)NC(=O)[C@H](CCCN)NC(=O)[C@H](CO)NC(=O)[C@H](Cc1ccc(O)cc1)NC(=O)[C@H](CC(=O)O)NC(=O)[C@H](CO)NC(=O)[C@@H](NC(=O)[C@H](Cc1ccccc1)NC(=O)[C@@H](NC(=O)CNC(=O)[C@H](CCC(N)=O)NC(=O)[C@H](CO)NC(=O)[C@@H](N)Cc1c[nH]cn1)[C@@H](C)O)[C@@H](C)O)C(C)C)C(=O)N[C@@H](CC(N)=O)C(=O)N[C@H](C(=O)N[C@@H](CCC(=O)O)C(=O)N[C@@H](CCC(=O)O)C(=O)N[C@@H](CCCCN)C(=O)O)[C@@H](C)O [SEQ ID NO: 21, HSQGTFTSDYSOYLDSOOAQDFVQWLMNTEEK] (H-HSQGTFTSDYS[Orn]YLDS[Orn][Orn]AQDFVQWLMNTEEK-OH; N-terminus and C-terminus assumed)
- formation of amyloid-like fibrils [1]: formed amyloid-like fibrils
- EC50 (glucagon receptor): 93.5 nM

Compound: HSQGTFTSKYSOELDSOOAQDFVQWLMNTEEKFVNQHLCGSHLVEALYLVCGEOGFFYTPETEEGPOOGIVEQCCQSICSLEQLENYCN [SEQ ID NO: 75]
- activity at 23.8 nmol/kg relative to the 12-nmol/kg rat doses (STZ (diabetic) rats; FIG. 18 vs FIG. 17, STZ rats): increased activity at the increased dose

Compound: insulin Lispro [reference compound]
- formation of amyloid-like fibrils [1]: formed amyloid-like fibrils

Compound: HSQGTFTSDYSOYLDSOOAQDFV[D-Cys]WLCNTEEK [[D-Cys24-Cys27] L]
- in vivo glucagon activity (rise in blood glucose) (normal rats [2]; FIGS. 9, 10, 13): only analogue that is active, other than wild-type glucagon, was the [Lys13, Glu17]-glucagon lactam

Compound: HSQGTFTSDYSKKLDSERAQDFVQWLMNT (lactam 13-17) [SEQ ID NO: 10, a lactam bridge connects the side chains of variant residues K13 and E17]
- in vivo glucagon activity (rise in blood glucose) (normal rats [2]; FIGS. 9, 10, 13, listed as [Lys13, Glu17]-glucagon lactam): active

Compound: FVNQHLCGSHLVEALYLVCGEOGFFYTPETEEGPOOGIVEQCCQSICSLEQLENYCN (FVNQHLCGSHLVEALYLVCGEXGFFYTPETEEGPXXGIVEQCCQSICSLEQLENYCN; ornithine residues; insulin peptide analog; (22)..(22) Xaa at position 22 is Orn.; (35)..(35) Xaa at position 35 is Orn.; (36)..(36) Xaa at position 36 is Orn.) [SEQ ID NO: 71, 57-residue single-chain insulin (SCI) analogue lacking internal tryptic sites]
- formation of amyloid-like fibrils [1]: did not form amyloid-like fibrils within the duration of the experiment
- biological activity relative to insulin Lispro (KP-insulin) (STZ (diabetic) rats; FIG. 14, STZ (diabetic) rats, 30-μg dose of SCI vs 15-μg dose of KP-insulin): slightly higher activity than a 15-μg dose of KP-insulin

Compound: HSQGTFTSKYSOELDSOOAQDFVQWLMNTEEK (HSQGTFTSKYS[Orn]ELDS[Orn][Orn]AQDFVQWLMNTEEK; lactam 9-13) [SEQ ID NO: 24]
- in vivo glucagon activity (rise in blood glucose) (normal rats [2]; FIGS. 9, 10, 13): inactive

Compound: HSQGTFTSDYSKKLDSERAQDFVQWLMNT (lactam 13-17) [[Lys13, Glu17]-Glucagon linear, linear [Lys13, Glu17] analogue without Orn substitutions or C-terminal EEK extension]
- in vivo glucagon activity (rise in blood glucose) (normal rats [2]; FIGS. 9, 10, 13): only analogue that is active, other than wild-type glucagon, was the [Lys13, Glu17]-glucagon lactam

Compound: HSQGTFTSDYSKYLDSRRAQDFVQWLMNTO [SEQ ID NO: 5]
- fibril formation [1, 4]: delay fibril formation
- fibril formation ([1]; pH 7.4, 37° C., constant agitation): delay fibril formation

Compound: HSQGTFTSDYSKYLDSRRAQDFVQWLMNTR (glucagon peptide analog) [SEQ ID NO: 2]
- fibril formation [1, 4]: delay fibril formation
